Reference: PMC9571063 (Molecules, 2022)
Counter-ions that a name gives are not always drawn. Like-named read-outs stand apart in the source and are kept apart here.

Tests used:
[1] = biological target: T1, Hs_CDK9/CyclinT (Homo sapiens, UniProt P50750); experiment: ADP-Glo kinase assay, primary screen; type: biochemical; conditions: n=2, read-out: % of residual activity Hs_CDK9/CyclinT
T1 construct: host or cells: Sf9 insect cells (baculovirus)

[2] = cytotoxic assay, nuclei count (Hoechst, HCS); type: cell-based; conditions: human, MDA-MB-231 cells (breast carcinoma); 48 h treatment; read-out: Cytotoxic studies IC50 MDA-MB-231
[3] = biological target: T2, Hs_CK1ε (Homo sapiens, UniProt P49674); experiment: ADP-Glo kinase assay, primary screen; type: biochemical; conditions: n=2, read-out: % of residual activity Hs_CK1ε
T2 construct: host or cells: Sf9 insect cells (baculovirus)
T2 sequence (P49674 whole entry): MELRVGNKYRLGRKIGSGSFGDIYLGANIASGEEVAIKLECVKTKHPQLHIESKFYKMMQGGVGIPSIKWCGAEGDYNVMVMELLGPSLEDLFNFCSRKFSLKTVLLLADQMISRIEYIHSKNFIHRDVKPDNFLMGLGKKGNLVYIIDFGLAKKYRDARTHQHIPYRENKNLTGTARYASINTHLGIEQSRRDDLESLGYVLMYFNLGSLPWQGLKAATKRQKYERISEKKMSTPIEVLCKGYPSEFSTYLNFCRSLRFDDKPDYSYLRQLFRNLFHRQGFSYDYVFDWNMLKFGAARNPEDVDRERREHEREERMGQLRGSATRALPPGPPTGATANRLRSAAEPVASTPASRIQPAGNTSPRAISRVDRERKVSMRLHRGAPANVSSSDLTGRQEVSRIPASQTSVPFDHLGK

[4] = biological target: T3, MmCLK1 (Mus musculus, UniProt P22518); experiment: ADP-Glo kinase assay; type: biochemical; conditions: for remaining activity at 1 µM / remaining activity at 10 µM: n=2, read-out: % of residual activity Mm_CLK1
T3 construct: host or cells: bacteria
T3 sequence (P22518 whole entry): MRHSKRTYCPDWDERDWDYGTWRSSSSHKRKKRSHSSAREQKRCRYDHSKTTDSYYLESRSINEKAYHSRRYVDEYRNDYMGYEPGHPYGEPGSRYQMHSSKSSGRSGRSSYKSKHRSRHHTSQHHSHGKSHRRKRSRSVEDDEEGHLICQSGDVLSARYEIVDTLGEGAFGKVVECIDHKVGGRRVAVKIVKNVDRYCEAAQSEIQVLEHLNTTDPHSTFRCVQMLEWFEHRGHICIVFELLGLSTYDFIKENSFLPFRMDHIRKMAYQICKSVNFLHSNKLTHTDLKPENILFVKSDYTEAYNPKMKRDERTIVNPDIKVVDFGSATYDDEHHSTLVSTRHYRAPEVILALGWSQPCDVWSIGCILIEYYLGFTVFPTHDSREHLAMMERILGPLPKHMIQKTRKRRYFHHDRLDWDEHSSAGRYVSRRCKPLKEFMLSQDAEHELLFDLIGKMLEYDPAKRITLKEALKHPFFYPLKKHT

[5] = biological target: T4, Hs_CDK5/p25 (Homo sapiens, UniProt Q00535); experiment: ADP-Glo kinase assay, primary screen; type: biochemical; conditions: n=2, read-out: % of residual activity Hs_CDK5/p25
T4 construct: host or cells: bacteria
T4 sequence (Q00535 whole entry): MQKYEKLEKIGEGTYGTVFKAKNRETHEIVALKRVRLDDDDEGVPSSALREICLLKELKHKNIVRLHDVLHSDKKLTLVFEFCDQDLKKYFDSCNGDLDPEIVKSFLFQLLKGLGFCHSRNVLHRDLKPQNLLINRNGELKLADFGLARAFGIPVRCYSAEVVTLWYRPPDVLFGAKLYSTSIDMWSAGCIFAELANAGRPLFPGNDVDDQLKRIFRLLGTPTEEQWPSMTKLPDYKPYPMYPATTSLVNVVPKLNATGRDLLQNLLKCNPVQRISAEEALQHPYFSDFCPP
T4 sequence (Q15078 99-307 partner limits assumed): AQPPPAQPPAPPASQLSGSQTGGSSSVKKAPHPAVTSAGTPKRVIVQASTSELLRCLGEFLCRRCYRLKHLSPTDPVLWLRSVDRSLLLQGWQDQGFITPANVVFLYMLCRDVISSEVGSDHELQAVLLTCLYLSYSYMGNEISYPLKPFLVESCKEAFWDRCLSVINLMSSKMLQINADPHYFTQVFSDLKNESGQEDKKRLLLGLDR

[6] = biological target: T5, Rn_DYRK1A (Rattus norvegicus, UniProt Q63470); experiment: ADP-Glo kinase assay, primary screen; type: biochemical; conditions: n=2, read-out: % of residual activity Rn_DYRK1A
T5 construct: host or cells: bacteria

[7] = biological target: T6, Hs_GSK3β (Homo sapiens, UniProt P49841); experiment: ADP-Glo kinase assay, primary screen; type: biochemical; conditions: n=2, read-out: % of residual activity Hs_GSK3β
T6 construct: host or cells: Sf9 insect cells (baculovirus)
T6 sequence (P49841 whole entry): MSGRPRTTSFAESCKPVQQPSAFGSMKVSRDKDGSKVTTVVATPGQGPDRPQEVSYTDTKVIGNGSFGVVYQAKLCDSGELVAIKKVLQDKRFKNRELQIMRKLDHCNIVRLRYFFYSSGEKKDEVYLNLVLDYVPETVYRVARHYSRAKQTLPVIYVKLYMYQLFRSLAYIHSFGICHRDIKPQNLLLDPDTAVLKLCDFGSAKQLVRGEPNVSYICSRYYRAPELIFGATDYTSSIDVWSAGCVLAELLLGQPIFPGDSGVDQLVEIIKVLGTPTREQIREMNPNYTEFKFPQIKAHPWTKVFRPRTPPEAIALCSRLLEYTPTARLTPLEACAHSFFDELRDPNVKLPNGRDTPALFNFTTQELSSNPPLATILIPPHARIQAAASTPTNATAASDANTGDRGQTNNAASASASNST

[8] = cytotoxic assay, nuclei count (Hoechst, HCS); type: cell-based; conditions: human, MCF7 cells (breast carcinoma); 48 h treatment; read-out: Cytotoxic studies IC50 MCF7
Protocol: (§1) To complete our study, we performed a cytotoxicity screening of the 15 molecules, investigating 7 representative cancer cell lines. The compound’s effect on cell viability was evaluated on Huh-7 (hepatocellular carcinoma), CaCo2, HCT-116 (colorectal adenocarcinoma), MCF7, MDA-MB231, MDA-MB468 (breast carcinoma), PC3 (prostate carcinoma) and NCI-H727 (lung carcinoid). Human skin fibroblasts were used as reference for non-cancerous cells. Roscovitine, Doxorubicin and Taxol were used as positive controls. The cells were treated for 48 h with 25 µM compounds and fixed in cooled 90% ethanol/5% acetic acid for 20 min. The nuclei were stained with Hoechst 33342 and counted using HCS technology.
(§2) HuH7, CaCo-2, MDA-MB-231, HCT116, PC3, MCF7 and NCI-H727 cancer cell lines were obtained from the ECACC collection (Porton Down, UK). Cells were grown at 37 °C, 5% CO2 in ECACC recommended media: DMEM for HuH7, MDA-MB-231 and fibroblast, EMEM for MCF7and CaCo-2, McCoy’s for HCT116 and RPMI for PC3 and NCI-H727. All culture media were supplemented with 10% of FBS, 1% of penicillin-streptomycin and 2 mM glutamine.
(§3) Chemicals were solubilized in DMSO at a concentration of 10 mM (stock solution) and diluted in culture medium to the desired final concentrations.
(§4) The cytotoxic assay of chemical was performed at 25 µM. Cells were plated in 96 wells plates (4000 cells/well). Twenty-four hours after seeding, cells were exposed to chemicals. After 48 h of treatment, cells were washed in PBS and fixed in cooled 90% ethanol/5% acetic acid for 20 min and the nuclei were stained with Hoechst 33342 (B2261 Sigma). Image acquisition and analysis were performed using a CellomicsArrayScan VTI/HCS Reader (ThermoScientific, Waltham, MA, USA). The survival percentages were calculated as the percentage of cell number after compound treatment over cell number after DMSO treatment.

[9] = cytotoxic assay, nuclei count (Hoechst, HCS); type: cell-based; conditions: human, 48 h treatment
Protocol: as §1, §2, §3
as §4, with “The cytotoxic assay of chemical was performed at 25 µM.” left out

[10] = cytotoxic assay, nuclei count (Hoechst, HCS); type: cell-based; conditions: human, HuH7 cells (hepatocellular carcinoma); 48 h treatment; read-out: Cytotoxic studies IC50 HuH7
[11] = cytotoxic assay, nuclei count (Hoechst, HCS); type: cell-based, human; conditions: human, human skin fibroblasts (non-cancerous reference cells); 48 h treatment; some cells add low/moderate/high amplitude; read-out: Cytotoxic studies IC50 Fibroblasts
Protocol: as §1, §2, §3, §4

[12] = biological target: T7, HsDYRK1A (Homo sapiens, UniProt Q13627); experiment: ADP-Glo kinase assay; type: biochemical; conditions: for remaining activity at 1 µM / remaining activity at 10 µM: n=2, read-out: % of residual activity Hs_DYRK1A
T7 construct: host or cells: Sf9 insect cells (baculovirus)

[13] = biological target: T8, Hs_PIM1 (Homo sapiens, UniProt P11309); experiment: ADP-Glo kinase assay, primary screen; type: biochemical; conditions: n=2, read-out: % of residual activity Hs_PIM1
T8 construct: host or cells: Sf9 insect cells (baculovirus)
T8 sequence (P11309 whole entry): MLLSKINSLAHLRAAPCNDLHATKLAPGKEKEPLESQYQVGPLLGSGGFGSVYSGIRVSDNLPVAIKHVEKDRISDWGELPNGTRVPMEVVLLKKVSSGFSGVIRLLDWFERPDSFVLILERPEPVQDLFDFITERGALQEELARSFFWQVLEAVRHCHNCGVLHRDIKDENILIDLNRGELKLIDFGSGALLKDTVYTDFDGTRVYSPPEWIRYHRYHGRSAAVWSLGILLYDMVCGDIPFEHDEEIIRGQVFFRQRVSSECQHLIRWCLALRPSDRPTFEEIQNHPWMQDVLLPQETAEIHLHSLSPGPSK

[14] = biological target: T9, Hs_HASPIN (Homo sapiens, UniProt Q8TF76); experiment: ADP-Glo kinase assay, primary screen; type: biochemical; conditions: n=2, read-out: % of residual activity Hs_HASPIN
T9 construct: host or cells: bacteria
T9 sequence (Q8TF76 1-798): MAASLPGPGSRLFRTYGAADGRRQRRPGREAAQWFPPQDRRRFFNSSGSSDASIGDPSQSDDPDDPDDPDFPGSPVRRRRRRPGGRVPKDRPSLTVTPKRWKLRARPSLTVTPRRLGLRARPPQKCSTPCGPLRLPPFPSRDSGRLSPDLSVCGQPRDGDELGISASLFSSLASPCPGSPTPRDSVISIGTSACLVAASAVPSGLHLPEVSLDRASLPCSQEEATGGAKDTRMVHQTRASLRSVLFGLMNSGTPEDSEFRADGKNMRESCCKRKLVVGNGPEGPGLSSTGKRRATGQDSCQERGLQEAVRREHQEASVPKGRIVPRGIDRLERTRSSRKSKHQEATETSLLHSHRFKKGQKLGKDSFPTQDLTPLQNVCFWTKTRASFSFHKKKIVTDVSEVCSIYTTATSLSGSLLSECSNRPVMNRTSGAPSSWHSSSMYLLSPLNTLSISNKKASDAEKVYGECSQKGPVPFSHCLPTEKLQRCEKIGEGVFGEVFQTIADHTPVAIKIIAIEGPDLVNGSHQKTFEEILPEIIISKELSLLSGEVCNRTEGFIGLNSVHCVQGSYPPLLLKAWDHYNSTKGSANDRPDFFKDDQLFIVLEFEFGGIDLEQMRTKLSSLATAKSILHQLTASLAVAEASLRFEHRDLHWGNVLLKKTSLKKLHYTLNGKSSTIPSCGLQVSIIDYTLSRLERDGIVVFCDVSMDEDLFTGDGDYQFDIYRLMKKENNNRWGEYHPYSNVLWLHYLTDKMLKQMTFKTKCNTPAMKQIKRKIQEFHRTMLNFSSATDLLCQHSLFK

[15] = cytotoxic assay, nuclei count (Hoechst, HCS); type: cell-based; conditions: human, Caco-2 cells (colorectal adenocarcinoma); 48 h treatment; read-out: Cytotoxic studies IC50 Caco2
[16] = HCT116 cells (colorectal adenocarcinoma), read-out: Cytotoxic studies IC50 HCT116
[17] = MDA-MB-468 cells (breast carcinoma), read-out: Cytotoxic studies IC50 MDA-MB-468

T1 sequence (P50750 whole entry): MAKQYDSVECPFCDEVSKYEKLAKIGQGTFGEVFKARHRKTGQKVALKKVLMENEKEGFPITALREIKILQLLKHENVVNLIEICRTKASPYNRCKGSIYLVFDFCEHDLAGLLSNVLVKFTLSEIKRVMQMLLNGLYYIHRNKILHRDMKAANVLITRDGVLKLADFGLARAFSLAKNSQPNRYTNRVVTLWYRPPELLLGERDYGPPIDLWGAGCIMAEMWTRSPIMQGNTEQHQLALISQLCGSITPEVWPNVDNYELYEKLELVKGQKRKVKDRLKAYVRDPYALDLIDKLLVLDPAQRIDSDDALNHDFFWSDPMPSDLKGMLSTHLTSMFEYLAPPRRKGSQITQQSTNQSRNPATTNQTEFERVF
T1 sequence (O60563 whole entry partner): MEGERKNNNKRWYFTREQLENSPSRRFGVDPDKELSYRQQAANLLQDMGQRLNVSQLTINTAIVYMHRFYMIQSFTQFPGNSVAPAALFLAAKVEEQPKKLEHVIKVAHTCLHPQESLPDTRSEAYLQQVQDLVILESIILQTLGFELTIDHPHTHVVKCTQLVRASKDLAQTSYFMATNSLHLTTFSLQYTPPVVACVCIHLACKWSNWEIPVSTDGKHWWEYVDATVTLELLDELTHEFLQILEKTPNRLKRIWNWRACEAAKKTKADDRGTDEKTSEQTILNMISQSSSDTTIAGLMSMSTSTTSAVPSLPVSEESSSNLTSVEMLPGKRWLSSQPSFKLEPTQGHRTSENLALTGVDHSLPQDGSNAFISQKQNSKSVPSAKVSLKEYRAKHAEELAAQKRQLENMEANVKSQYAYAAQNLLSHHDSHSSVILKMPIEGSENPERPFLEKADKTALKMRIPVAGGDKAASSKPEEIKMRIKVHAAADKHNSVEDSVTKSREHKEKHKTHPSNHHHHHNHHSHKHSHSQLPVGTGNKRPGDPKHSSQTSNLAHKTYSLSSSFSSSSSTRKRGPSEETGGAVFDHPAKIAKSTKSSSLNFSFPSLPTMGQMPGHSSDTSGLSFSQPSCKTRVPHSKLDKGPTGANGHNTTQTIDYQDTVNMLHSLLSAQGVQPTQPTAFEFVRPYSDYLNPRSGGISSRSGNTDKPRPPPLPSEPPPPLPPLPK

SMILES | remaining activity at 1 µM [1] [%] | remaining activity at 10 µM [1] [%] | IC50 at 48 h [2] [µM] | remaining activity at 1 µM [3] [%] | remaining activity at 10 µM [3] [%] | remaining activity at 1 µM [4] [%] | remaining activity at 10 µM [4] [%] | remaining activity at 1 µM [5] [%] | remaining activity at 10 µM [5] [%] | remaining activity at 1 µM [6] [%] | remaining activity at 10 µM [6] [%] | remaining activity at 1 µM [7] [%] | remaining activity at 10 µM [7] [%] | IC50 at 48 h [8] [µM] | IC50 at 48 h [9, 16] [µM] | IC50 at 48 h [9, 17] [µM] | IC50 at 48 h [10] [µM] | IC50 at 48 h [11] [µM] | remaining activity at 1 µM [12] [%] | remaining activity at 10 µM [12] [%] | also measured
CC(C)(C)OC(=O)N[C@H]1CC[C@@H](n2cc(COc3cccc4cnc(Nc5cc(Cl)cc(Cl)c5)nc34)nn2)CC1 [15b, tert-Butyl ((cis)-4-(4-(((2-((3,5-dichlorophenyl)amino)quinazolin-8-yl)oxy)methyl)-1H-1,2,3-triazol-1-yl)cyclohexyl)carbamate] | 92 | 61 | 8 | ≥ 100 | 81 | 96 | 73 | ≥ 100 | 68 | 95 | ≥ 100 | 93 | 57 | > 25 | > 25 | > 25 | 20 | > 25 | ≥ 100 | 74 | remaining activity at 1 µM [13]: 75%; remaining activity at 10 µM [13]: 73%; remaining activity at 1 µM [14]: 89%; remaining activity at 10 µM [14]: 58%; IC50 at 48 h [15]: 21 µM
CC(C)(C)OC(=O)N[C@H]1CC[C@H](n2cc(COc3cccc4cnc(Nc5cccc(Cl)c5)nc34)nn2)CC1 [18a, tert-Butyl ((trans)-4-(4-(((2-((3-chlorophenyl)amino)quinazolin-8-yl)oxy)methyl)-1H-1,2,3-triazol-1-yl)cyclohexyl)carbamate] | 92 | 59 | 7 | ≥ 100 | 78 | 93 | 70 | 69 | 58 | 92 | ≥ 100 | 88 | 60 | > 25 | 5 | 15 | 4 | > 25 | ≥ 100 | 66 | remaining activity at 1 µM [13]: 77%; remaining activity at 10 µM [13]: 74%; remaining activity at 1 µM [14]: 77%; remaining activity at 10 µM [14]: 70%; IC50 at 48 h [15]: 16 µM
N[C@H]1CC[C@H](n2cc(COc3cccc4cnc(Nc5cccc(Cl)c5)nc34)nn2)CC1 [19a, 8-((1-((trans)-4-Aminocyclohexyl)-1H-1,2,3-triazol-4-yl)methoxy)-N-(3-chlorophenyl)quinazolin-2-amine hydrochloride] | 65 | 30 | 6 | 73 | 22 | 20 | 10 | ≥ 100 | 30 | 78 | 64 | 50 | 23 | 11 | 7 | 7 | 8 | 1.3 | 84 | 34 | IC50 ([4]; mouse CLK1 orthologue, read-out: IC50 MmCLK1): 0.2 µM; IC50 ([12]; 10 µM ATP, duplicate): 3.72 µM; remaining activity at 1 µM [13]: 62%; remaining activity at 10 µM [13]: 40%; remaining activity at 1 µM [14]: 70%; remaining activity at 10 µM [14]: 92%; IC50 at 48 h [15]: 11 µM
